According to patent US20250388605A1, “HETEROBIFUNCTIONAL COMPOUNDS AND METHODS OF TREATING DISEASE” (Halda Therapeutics OpCo, Inc., priority 2022, published 2025):

Tested on: T-Rex 293 cell line SC cells lacking increased expression of progesterone receptor isoform B protein
Test: Cellular growth inhibition assay, T-Rex 293 SC cells not exposed to doxycycline (no increased progesterone receptor isoform B expression), CellTiter-Glo
Assay type: cell-based
Conditions: T-Rex 293 SC cells without doxycycline (no increased PR isoform B), 72 hours

Structure (SMILES)	GI50
Cn1cc(-c2cc(C(C)(C)O)ccc2Oc2ccc(N3CC(CC4CCN(c5ncc(C(=O)N[C@H]6C(C)(C)[C@H](Oc7ccc(C#N)c(Cl)c7)C6(C)C)cn5)CC4)C3)cc2)c2cc[nH]c2c1=O [Compound I-232]	500 to 1500 nM
CN(C1CN(c2ccc(Oc3ccc(C(C)(C)O)cc3-c3cn(C)c(=O)c4[nH]ccc34)cc2)C1)C1CN(c2ncc(C(=O)N[C@H]3C(C)(C)[C@H](Oc4ccc(C#N)c(Cl)c4)C3(C)C)cn2)C1 [Compound I-238]	< 500 nM
CN(CC1CCN(c2ncc(C(=O)N[C@H]3C(C)(C)[C@H](Oc4ccc(C#N)c(Cl)c4)C3(C)C)cn2)CC1)C1(c2ccc(Oc3ccc(C(C)(C)O)cc3-c3cn(C)c(=O)c4[nH]ccc34)cc2)COC1 [Compound I-255]	1500 to 3000 nM
Cn1cc(-c2cc(C(C)(C)O)ccc2Oc2ccc(CCCC3CC4(C3)CN(c3ncc(C(=O)N[C@H]5C(C)(C)[C@H](Oc6ccc(C#N)c(Cl)c6)C5(C)C)cn3)C4)cc2)c2cc[nH]c2c1=O [Compound I-268]	< 500 nM
Cn1cc(-c2cc(C(C)(C)O)ccc2Oc2ccc(N3CC(CC4CN(c5ncc(C(=O)N[C@H]6C(C)(C)[C@H](Oc7ccc(C#N)c(Cl)c7)C6(C)C)cn5)C4)C3)cc2)c2cc[nH]c2c1=O [Compound I-280]	< 500 nM

Target: T1, progesterone receptor (Homo sapiens, UniProt P06401)
T1 sequence (P06401 679-933 limits assumed): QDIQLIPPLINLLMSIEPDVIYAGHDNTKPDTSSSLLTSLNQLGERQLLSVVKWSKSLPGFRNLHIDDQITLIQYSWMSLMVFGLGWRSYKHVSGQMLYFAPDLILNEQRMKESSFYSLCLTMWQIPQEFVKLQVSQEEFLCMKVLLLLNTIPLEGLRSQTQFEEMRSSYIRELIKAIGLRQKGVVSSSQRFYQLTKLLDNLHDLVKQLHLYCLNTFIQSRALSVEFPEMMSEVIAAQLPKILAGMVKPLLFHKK
Test: PR Human Progesterone NHR Binding (Agonist Radioligand) Assay, [3H]progesterone, T47D cytosolic fractions
Conditions: 0.5 nM [3H]progesterone, 1 hour at 4° C.
Experimental: Exemplary compounds were tested for ability to bind to the progesterone receptor.
Compounds were tested using the PR Human Progesterone NHR Binding (Agonist Radioligand) Assay, Cerep at Eurofins Discovery using a modified version of the protocol from Sarup et al. (Cancer Res 1988; 48:5071-5078). Briefly, cytosolic fractions of T47D cells were incubated with 0.5 nM [^3H]progesterone for 1 hour at 4° C. in the absence or presence of the test compound. Nonspecific binding was determined in the presence of […] promegestone. Reactions were subjected to scintillation counting. Results are expressed as a percent inhibition of the control radioligand specific binding.

Structure (SMILES)	Ki
CCS(=O)(=O)Nc1ccc(Oc2cccc(CCOC3CCN(c4ncc(C(=O)N[C@H]5C(C)(C)[C@H](Oc6ccc(C#N)c(Cl)c6)C5(C)C)cn4)CC3)c2)c(-c2cn(C)c(=O)c3[nH]ccc23)c1 [Compound I-19]	< 50 nM
CCS(=O)(=O)c1ccc(Oc2cccc(OCCOC3CCN(c4ccc(C(=O)N[C@H]5C(C)(C)[C@H](Oc6ccc(C#N)c(Cl)c6)C5(C)C)cn4)CC3)c2F)c(-c2cn(C)c(=O)c3[nH]ccc23)c1 [Compound I-185]	< 50 nM
Cn1cc(-c2cc(C(C)(C)O)ccc2Oc2ccc(N3CC(CC4CCN(c5ncc(C(=O)N[C@H]6C(C)(C)[C@H](Oc7ccc(C#N)c(Cl)c7)C6(C)C)cn5)CC4)C3)cc2)c2cc[nH]c2c1=O [Compound I-232]	< 50 nM
